Laboratory results from patent publication US20050267020A1, “Polypeptides derived from inducible hsp70 and pharmaceutical compositions containing the same” (priority 2001, published 2005).

What was measured:
[1] = tested on: COS cells transfected with both Hsp70 and HHD expression vectors; experiment: Peptide processing assay on COS-transfected cells, TNF-α secretion by murine CTL; assay type: cell-based, simian
From the text: After contact of murine CTL lines with transfected COS cell, CTL recognition of COS cells is expressed as CTL secretion of TNF-α dosed in supernatant (X Axis, TNF-α ranges from 0 to 500 pg/ml). The graphs represent TNF-α dosage by cytotoxic cell lines, respectively mCTL380, mCTL391 mCTL393 and mCTL134, after contact with COS cells. In each graph, upper to lower bars represent the different cells in contact with CTL, respectively: negative control (no COS cell), COS cells, COS cells transfected with Hsp70 expression plasmid, COS cells transfected with HHD expression plasmid, positive control (COS cells transfected with HHD and pulsed with the respective peptide), COS cells transfected with HHD and with Hsp70 expression plasmids.
Peptide Processing Assay on COS-Transfected Cells. 2.2×10^4 simian COS cells were plated in flat-bottom 96 well plates in DMEM 10% FCS, in quadruplicates for each condition. 18 hours later, the medium is discarded, and 100 ng of each DNA plasmid, encoding for Hsp70 and HLA class I molecules, is put in contact with COS cells in DMEM 10% Nuserum […] Chloroquine 10 mg/mL DEAE Dextran. After 4 hours of incubation at 37° C., transfection medium is discarded, and 50 μL PBS 10% DMSO is added for 2 minutes for integration of plasmids. It is then discarded and transfected COS cells are placed in DMEM 10% FCS for 40 hours. Transfected COS cells are then used with 5×10^4 murine CTL in a TNF-α secretion assay.
(§1) TNF-α Secretion Assay. Transfected COS cells on day 4 or 10^5 target tumor cells were plated in 50 μL RPMI 10% FCS and when necessary incubated with 10 μM peptide for 1 hour. In blocking experiments, anti-HLA class I antibody w6/32 or an irrelevant antibody were incubated with target cells for 1 h30. 5×10^4 T cells were then added in 50 μL RPMI 10% FCS and incubated for 6 hours. Each condition was tested in quadruplicates. 50 μL of the supernatant was collected. Standard dilutions were prepared in 50 μL with final doses of TNF-α (kindly provided by I. Apfler, Bender Wien, Austria) ranging from 10^4 to 0.08 pg/mL. On both the supernatants and the standards were added 50 μL of 3×10^4 TNF-α sensitive WEHI-164c13 cells. They were incubated for 16 hours at 37° C. (23). Inhibition of cell proliferation was evaluated by the MTT colorimetric method. Briefly, 50 μL of MTT at 2.5 mg/mL (Sigma-Aldrich) was added and incubated for 4 hours at 37° C. Cells were then lyzed with 100 μL of a pH4.7 33% N,N-dimethyl formamide (Sigma-Aldrich) 20% SDS solution in water. Two hours after cells lysis, OD was measured at 550 nm on a Dynatech MR5000 spectrophotometer. TNF-α quantitation was calculated by linear interpolation with the standard dilutions.

[2] = biological target: T1, HLA-A*0201/peptide complex (Homo sapiens, UniProt P04439, D140Y/D185E/D98H/E176V/E277Q/G131W/G231S/I119V/I121R/I166T/I218V/L300P/L318F/N151K/N90K/P208A/P217A/Q86G/Q94H/R138H/R169H/T345S); experiment: Assessment of peptide/HLA class I complex stability (DC50); assay type: binding; conditions: half life (DC50) of the HLA-A*0201/peptide complex
T1 construct: Tap−/− cells expressing the studied HLA-class I molecule; endogenous in cells; host or cells: T2 cells (Tap-/-, HLA-A*0201)
Procedure: Assessment of Peptide/HLA class I Complex Stability. Tap−/− cells (10^6/mL) were incubated overnight with 100 μM of each peptide in serum-free RPMI 1640 medium supplemented with 100 ng/mL of […] at 37° C. Cells were then washed four times to remove free peptide, incubated with Brefeldin A (10 μg/mL) for 1 hour to block cell surface expression of newly synthesized HLA molecules, washed and incubated at 37° C. for 0, 2, 4 or 6 hours. Subsequently, cells were stained with the HLA specific mAb followed by FITC conjugated goat anti mouse Ig mAb. For each time point, peptide induced HLA expression was calculated as: Mean fluorescence of peptide preincubated cells—Mean fluorescence of cells treated in similar conditions in the absence of peptide. DC50 (dissociation complex; DC) was defined as the time required for the loss of 50% of the HLA-A*0201/peptide complexes stabilized at t=0.
The affinity of each peptide was assayed experimentally by determination of the Relative Affinity: the necessary peptide dose to stabilise a reference quantity of HLA-A*0201 molecules at the surface of T2 cells; and the stability of each peptide was assayed by determination of the half-life of the peptide/HLA-A*0201 molecule complex (DC50: dissociation complex 50).

[3] = tested on: MCF-7 and SAOS tumor cell lines; experiment: Recognition by murine CTL of epitopes at the surface of human tumor cells, TNF-α secretion assay; assay type: cell-based; conditions: HLA-A*0201+ Hsp70+ tumor cells
From the text: CTL recognition of tumoral cells is expressed as CTL secretion of TNF-α dosed in supernatant (X Axis, TNF-α ranges from 0 to 1000 pg/ml) after contact with the cells. Upper to lower bars represent the different cells and reagents in contact with CTL, respectively: 2 negative controls (M113, M44), SAOS, MCF-7, MCF-7 blocked with anti-class I (w6/32) antibody before mixed culture, and MCF-7 blocked with an irrelevant antibody before mixed culture.
as §1
We studied whether the over-expression of Hsp70 described in certain tumor cell lines was high enough to enable these epitopes to be presented at the surface of tumor cells. We addressed this question with our already available high-avidity murine CTLs, hypothesizing that such a high CTL avidity enables the recognition of the highest-Hsp70 expressing human tumor cells. […]

YLGYPVTNAV [HSP 134(10)]
processing of the peptide: recognition of Hsp70 + HHD transfected COS cells by the specific murine CTL line [1]: are epitopes

LMGDKSENV [HSP 380]
Stability (hrs) [2]: 4 h hrs | processing of the peptide: recognition of Hsp70 + HHD transfected COS cells by the specific murine CTL line [1]: are epitopes | presentation of the epitope at the surface of Hsp70 over-expressing human tumor cells [3]: demonstrated

LLLLDVAPL [HSP 391]
Stability (hrs) [2]: >6 h hrs | processing of the peptide: recognition of Hsp70 + HHD transfected COS cells by the specific murine CTL line [1]: are epitopes | presentation of the epitope at the surface of Hsp70 over-expressing human tumor cells [3]: demonstrated
